Data as given in ChEMBL document CHEMBL1201862, “PubChem BioAssay data set” (2004).
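48-hour exposure; five concentrations; linearly interpolated endpoints. Abbreviation: GI50, concentration required for 50% inhibition of growth.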 Active and inactive are the calls of the source. Rule as the data show it: active = GI50 up to about 1.1 µM and inactive = higher.

Tests used:
Experiment in all cases: growth of human tumour cells (NCI), 48 h
SN12C = tested on: SN12C
SK-OV-3 = tested on: SK-OV-3
MOLT-4 = tested on: MOLT-4
CCRF-CEM = tested on: CCRF-CEM
OVCAR-8 = tested on: OVCAR-8
OVCAR-3 = tested on: OVCAR-3
U-251 = tested on: U-251
IGROV-1 = tested on: IGROV-1
SW-620 = tested on: SW-620
Malme-3M = tested on: Malme-3M
SNB-19 = tested on: SNB-19
UACC-62 = tested on: UACC-62
A549 = tested on: A549
M19-MEL = tested on: M19-MEL
NCI/ADR-RES = tested on: NCI/ADR-RES
LOX IMVI = tested on: LOX IMVI
A498 = tested on: A498
NCI-H460 = tested on: NCI-H460
SK-MEL-5 = tested on: SK-MEL-5
NCI-H522 = tested on: NCI-H522
K562 = tested on: K562
XF498 = tested on: XF498
COLO 205 = tested on: COLO 205
UACC-257 = tested on: UACC-257
SF-539 = tested on: SF-539
SNB-78 = tested on: SNB-78
DMS-114 = tested on: DMS-114
SF-295 = tested on: SF-295
RPMI-8226 = tested on: RPMI-8226
OVCAR-5 = tested on: OVCAR-5
HOP-18 = tested on: HOP-18
SK-MEL-2 = tested on: SK-MEL-2
CAKI-1 = tested on: CAKI-1
DMS-273 = tested on: DMS-273
EKVX = tested on: EKVX
KM-20L2 = tested on: KM-20L2
NCI-H226 = tested on: NCI-H226
OVCAR-4 = tested on: OVCAR-4
HCT-116 = tested on: HCT-116
MCF7 = tested on: MCF7
HT-29 = tested on: HT-29
DLD-1 = tested on: DLD-1
HL-60 = tested on: HL-60
SF-268 = tested on: SF-268
HCT-15 = tested on: HCT-15
NCI-H23 = tested on: NCI-H23
RXF 393 = tested on: RXF 393
UO-31 = tested on: UO-31
KM12 = tested on: KM12
SNB-75 = tested on: SNB-75
HCC 2998 = tested on: HCC 2998
HOP-62 = tested on: HOP-62
SK-MEL-28 = tested on: SK-MEL-28
HOP-92 = tested on: HOP-92

CC(=O)NC(Cc1ccsc1)C(=O)O (centres undefined)
GI50 (SN12C): > 100 µM (inactive)
GI50 (SK-OV-3): > 100 µM (inactive)
GI50 (MOLT-4): > 100 µM (inactive)
GI50 (CCRF-CEM): > 100 µM (inactive)
GI50 (OVCAR-8): > 100 µM (inactive)
GI50 (OVCAR-3): > 100 µM (inactive)
GI50 (U-251): > 100 µM (inactive)
GI50 (IGROV-1): > 100 µM (inactive)
GI50 (SW-620): > 100 µM (inactive)
GI50 (Malme-3M): > 100 µM (inactive)
GI50 (SNB-19): > 100 µM (inactive)
GI50 (UACC-62): > 100 µM (inactive)
GI50 (A549): > 100 µM (inactive)
GI50 (M19-MEL): > 100 µM (inactive)
GI50 (NCI/ADR-RES): > 100 µM (inactive)
GI50 (LOX IMVI): > 100 µM (inactive)
GI50 (A498): > 100 µM (inactive)
GI50 (NCI-H460): > 100 µM (inactive)
GI50 (SK-MEL-5): > 100 µM (inactive)
GI50 (NCI-H522): > 100 µM (inactive)
GI50 (K562): > 100 µM (inactive)
GI50 (XF498): > 35.4 µM (inactive)
GI50 (COLO 205): > 100 µM (inactive)
GI50 (UACC-257): > 100 µM (inactive)
GI50 (SF-539): > 100 µM (inactive)
GI50 (SNB-78): > 100 µM (inactive)
GI50 (DMS-114): > 100 µM (inactive)
GI50 (SF-295): > 62.2 µM (inactive)
GI50 (RPMI-8226): > 100 µM (inactive)
GI50 (OVCAR-5): > 100 µM (inactive)
GI50 (HOP-18): > 100 µM (inactive)
GI50 (SK-MEL-2): > 100 µM (inactive)
GI50 (CAKI-1): > 100 µM (inactive)
GI50 (DMS-273): > 100 µM (inactive)
GI50 (EKVX): > 100 µM (inactive)
GI50 (KM-20L2): > 100 µM (inactive)
GI50 (NCI-H226): > 100 µM (inactive)
GI50 (OVCAR-4): > 100 µM (inactive)
GI50 (HCT-116): > 100 µM (inactive)
GI50 (MCF7): > 100 µM (inactive)
GI50 (HT-29): > 100 µM (inactive)
GI50 (DLD-1): > 100 µM (inactive)
GI50 (HL-60): > 100 µM (inactive)
GI50 (SF-268): > 100 µM (inactive)
GI50 (HCT-15): > 100 µM
GI50 (NCI-H23): > 100 µM (inactive)
GI50 (RXF 393): > 100 µM (inactive)
GI50 (UO-31): > 100 µM (inactive)
GI50 (KM12): > 100 µM (inactive)
GI50 (SNB-75): > 100 µM (inactive)
GI50 (HCC 2998): > 100 µM (inactive)
GI50 (HOP-62): > 100 µM (inactive)
GI50 (SK-MEL-28): > 100 µM (inactive)
GI50 (HOP-92): > 100 µM (inactive)
